Several values for one entry are separate records, joined by “and”; a condition that tells them apart may be missing. Identical values can stand only once. Toxic doses and inconclusive results are not listed.
Test system: P388 leukemia ip, CD2F1 mice, survival T/C
Test: NCI In Vivo Anticancer Drug Screen. Data for tumor model P388 Leukemia (intraperitoneal) in CD2F1 (CDF1) mice
Conditions: endpoint: median survival time, higher = longer survival
How it was run: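 Mice carrying the transplanted tumor received test compound or vehicle. Survival was recorded in each group, and the value is the treated-group measurement divided by that of the vehicle-treated control group.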

[1] = dose: 60.0 mg/kg/injection, schedule: Q01DX005 (ip), vehicle: Klucel (hydroxypropylcellulose) (HPC)
[2] = dose: 120.0 mg/kg/injection, schedule: Q01DX005 (ip), vehicle: Klucel (hydroxypropylcellulose) (HPC)
[3] = dose: 240.0 mg/kg/injection, schedule: Q01DX005 (ip), vehicle: Klucel (hydroxypropylcellulose) (HPC)
[4] = dose: 100.0 mg/kg/injection, schedule: Q01DX009 (ip), vehicle: saline with Tween-80
[5] = dose: 200.0 mg/kg/injection, schedule: Q01DX009 (ip), vehicle: saline with Tween-80
[6] = dose: 50.0 mg/kg/injection, schedule: Q01DX009 (ip), vehicle: saline
[7] = dose: 100.0 mg/kg/injection, schedule: Q01DX009 (ip), vehicle: saline
[8] = dose: 50.0 mg/kg/injection, schedule: Q01DX005 (ip), vehicle: Klucel (hydroxypropylcellulose) (HPC)
[9] = dose: 100.0 mg/kg/injection, schedule: Q01DX005 (ip), vehicle: Klucel (hydroxypropylcellulose) (HPC)
[10] = dose: 200.0 mg/kg/injection, schedule: Q01DX005 (ip), vehicle: Klucel (hydroxypropylcellulose) (HPC)
[11] = dose: 60.0 mg/kg/injection, schedule: Q01DX005 (ip), vehicle: saline with Tween-80
[12] = dose: 120.0 mg/kg/injection, schedule: Q01DX005 (ip), vehicle: saline with Tween-80
[13] = dose: 50.0 mg/kg/injection, schedule: Q01DX009 (ip), vehicle: suspension in saline
[14] = dose: 100.0 mg/kg/injection, schedule: Q01DX009 (ip), vehicle: suspension in saline
[15] = dose: 50.0 mg/kg/injection, schedule: Q01DX009 (ip), vehicle: Klucel (hydroxypropylcellulose) (HPC)
[16] = dose: 100.0 mg/kg/injection, schedule: Q01DX009 (ip), vehicle: Klucel (hydroxypropylcellulose) (HPC)
[17] = dose: 200.0 mg/kg/injection, schedule: Q01DX009 (ip), vehicle: Klucel (hydroxypropylcellulose) (HPC)

For COc1ccc2c(c1O)Oc1c(O)ccc3c1C(C2)N(C)CC3 (stereo not given), the T/C (dose: 2.5 mg/kg/injection, schedule: Q01DX005 (ip), vehicle: Klucel (hydroxypropylcellulose) (HPC)) was 107 % of control, the T/C (dose: 5.0 mg/kg/injection, schedule: Q01DX005 (ip), vehicle: Klucel (hydroxypropylcellulose) (HPC)) was 100 % of control and the T/C (dose: 10.0 mg/kg/injection, schedule: Q01DX005 (ip), vehicle: Klucel (hydroxypropylcellulose) (HPC)) was 102 % of control. The T/C (dose: 20.0 mg/kg/injection, schedule: Q01DX005 (ip), vehicle: Klucel (hydroxypropylcellulose) (HPC)) was 100 % of control.
In the case of Nn1cnc2c(ncn2C2OC(CO)C(O)C2O)c1=O (stereo not given), the T/C [1] was 98 % of control, the T/C [2] was 99 % of control and the T/C [3] was 97 % of control.
For CC(/C=C/c1ccccc1)=Nc1ccccc1, the T/C (dose: 50.0 mg/kg/injection, schedule: Q01DX009 (ip), vehicle: saline with Tween-80) was 109 % of control and 112 % of control, the T/C [4] was 114 % of control and 123 % of control and the T/C [5] was 123 % of control.
CCC[CH2][Ge]([CH2]CCC)([CH2]CCC)[S][Ge]([CH2]CCC)([CH2]CCC)[CH2]CCC was tested, and the T/C [6] was 91 % of control, the T/C [7] was 92 % of control and the T/C (dose: 200.0 mg/kg/injection, schedule: Q01DX009 (ip), vehicle: saline) was 97 % of control.
For O=c1[nH]c(=O)c2[nH]c(=O)[nH]c(=O)c2[nH]1, the T/C [8] was 99 % of control, the T/C [9] was 96 % of control and the T/C [10] was 103 % of control.
c1ccc2c(c1)[nH]c1c3ccccc3sc21 was tested, and the T/C [1] was 106 % of control, the T/C [2] was 107 % of control and the T/C [3] was 105 % of control.
In the case of C[Si](C)(C)c1ccccn1, the T/C [11] was 108 % of control, the T/C [12] was 103 % of control and the T/C (dose: 240.0 mg/kg/injection, schedule: Q01DX005 (ip), vehicle: saline with Tween-80) was 113 % of control.
With CN(C)c1ccc([N+]([O-])=NC#N)cc1 the T/C (dose: 25.0 mg/kg/injection, schedule: Q04DX003 (ip), vehicle: saline with Tween-80) was 93 % of control, the T/C (dose: 50.0 mg/kg/injection, schedule: Q04DX003 (ip), vehicle: saline with Tween-80) was 95 % of control and the T/C (dose: 100.0 mg/kg/injection, schedule: Q04DX003 (ip), vehicle: saline with Tween-80) was 92 % of control.
For O=C(O)CN1C(=O)c2cccc3cccc(c23)C1=O, the T/C [13] was 101 % of control, the T/C [14] was 102 % of control and the T/C (dose: 200.0 mg/kg/injection, schedule: Q01DX009 (ip), vehicle: suspension in saline) was 100 % of control.
O=NNc1ccc(S(=O)(=O)c2ccccc2)cn1 was tested, and the T/C (dose: 3.12 mg/kg/injection, schedule: Q01DX009 (ip), vehicle: sodium bicarbonate) was 98 % of control, the T/C (dose: 6.25 mg/kg/injection, schedule: Q01DX009 (ip), vehicle: sodium bicarbonate) was 98 % of control and the T/C (dose: 12.5 mg/kg/injection, schedule: Q01DX009 (ip), vehicle: sodium bicarbonate) was 94 % of control and 96 % of control. For the same compound, the T/C (dose: 25.0 mg/kg/injection, schedule: Q01DX009 (ip), vehicle: sodium bicarbonate) was 100 % of control and 104 % of control, the T/C (dose: 50.0 mg/kg/injection, schedule: Q01DX009 (ip), vehicle: sodium bicarbonate) was 109 % of control and the T/C (dose: 100.0 mg/kg/injection, schedule: Q01DX009 (ip), vehicle: sodium bicarbonate) was 160 % of control.
In the case of COc1ccc2cc3n(cc-2c1=O)CCc1cc2c(cc1-3)OCO2, the T/C (dose: 100.0 mg/kg/injection, schedule: Q04DX003 (ip), vehicle: water) was 160 % of control.
O=C1Cc2ccccc2C(=O)N1CCN1CCOCC1 was tested, and the T/C (dose: 100.0 mg/kg/injection, schedule: Q01DX001 (ip), vehicle: saline) was 101 % of control and the T/C (dose: 200.0 mg/kg/injection, schedule: Q01DX001 (ip), vehicle: saline) was 108 % of control.
With [Cu+2].[O-]c1ccccc1C=NCC(O)CN=Cc1ccccc1[O-] (stereo not given) the T/C (dose: 3.75 mg/kg/injection, schedule: Q01DX005 (ip), vehicle: saline with Tween-80) was 97 % of control and the T/C (dose: 7.5 mg/kg/injection, schedule: Q01DX005 (ip), vehicle: saline with Tween-80) was 104 % of control.
In the case of CC[C@@H]1CN2CCc3c([nH]c4ccccc34)[C@@](C(=O)OC)(c3cc4c(cc3OC)N(C)[C@H]3[C@@](O)(C(=O)OC)[C@H](OC(C)=O)[C@]5(CC)C=CCN6CC[C@]43[C@@H]65)C[C@H](C2)C1=O, the T/C (dose: 1.0 mg/kg/injection, schedule: Q01DX001 (ip), vehicle: water) was 104 % of control, the T/C (dose: 2.0 mg/kg/injection, schedule: Q01DX001 (ip), vehicle: water) was 108 % of control and the T/C (dose: 4.0 mg/kg/injection, schedule: Q01DX001 (ip), vehicle: distilled water + Tween-80) was 119 % of control. For the same compound, the T/C (dose: 4.0 mg/kg/injection, schedule: Q01DX001 (ip), vehicle: water) was 120 % of control, the T/C (dose: 8.0 mg/kg/injection, schedule: Q01DX001 (ip), vehicle: distilled water + Tween-80) was 117 % of control and the T/C (dose: 16.0 mg/kg/injection, schedule: Q01DX001 (ip), vehicle: distilled water + Tween-80) was 119 % of control.
COc1cc(OC)c(N=Cc2ccc(C=Nc3cc(Cl)c(OC)cc3OC)cc2)cc1Cl was tested, and the T/C [15] was 100 % of control, the T/C [16] was 89 % of control and the T/C [17] was 86 % of control.
For CCOC(=O)NCP(Cl)(CNC(=O)OCC)(CNC(=O)OCC)CNC(=O)OCC, the T/C [6] was 99 % of control and the T/C [7] was 86 % of control.
With Cc1ccc(/C=N/S(=O)(=O)Cc2ccccc2)cc1 the T/C [15] was 99 % of control, the T/C [16] was 100 % of control and the T/C [17] was 100 % of control.
With COc1cc(CC2C(=O)OCC2C2(c3ccc4c(c3)OCO4)SCCCS2)cc(OC)c1OC (stereo not given) the T/C [15] was 105 % of control, the T/C [16] was 91 % of control and the T/C [17] was 93 % of control.
For Clc1ccc(Cc2nc3ccccc3s2)cc1, the T/C [11] was 106 % of control and the T/C [12] was 121 % of control.
For COC(=O)C1CCC(c2ccccc2)(c2ccccc2)C1=O.COC(=O)C1CCC(c2ccccc2)(c2ccccc2)C1=O.[Cu] (stereo not given), the T/C (dose: 100.0 mg/kg/injection, schedule: Q01DX001 (ip), vehicle: Klucel (hydroxypropylcellulose) (HPC)) was 100 % of control, the T/C (dose: 200.0 mg/kg/injection, schedule: Q01DX001 (ip), vehicle: Klucel (hydroxypropylcellulose) (HPC)) was 100 % of control and the T/C (dose: 400.0 mg/kg/injection, schedule: Q01DX001 (ip), vehicle: Klucel (hydroxypropylcellulose) (HPC)) was 102 % of control.
In the case of COC(=O)C1Cc2c([nH]c3ccccc23)C(C)(C)N1 (stereo not given), the T/C (dose: 25.0 mg/kg/injection, schedule: Q01DX009 (ip), vehicle: suspension in saline) was 99 % of control, the T/C [13] was 93 % of control and the T/C [14] was 93 % of control.
With CC(=O)ON(C(C)=O)c1ccc(C(=O)OC2(C)CC(C)(C)N=N2)cc1 (stereo not given) the T/C (dose: 12.5 mg/kg/injection, schedule: Q01DX009 (ip), vehicle: saline with Tween-80) was 86 % of control, the T/C [4] was 87 % of control and the T/C [5] was 106 % of control.
COc1ccc(C(CN2CCOCC2)C(C)=O)cc1OC (stereo not given) was tested, and the T/C (dose: 60.0 mg/kg/injection, schedule: Q01DX005 (ip), vehicle: saline) was 101 % of control, the T/C (dose: 120.0 mg/kg/injection, schedule: Q01DX005 (ip), vehicle: saline) was 101 % of control and the T/C (dose: 240.0 mg/kg/injection, schedule: Q01DX005 (ip), vehicle: saline) was 101 % of control.
COc1ccc(OC)c(/C=C2/C(=O)ON=C2C)c1 was tested, and the T/C [11] was 114 % of control and the T/C [12] was 111 % of control.
For O=C1NC(O)c2cc(Cl)ccc2O1 (stereo not given), the T/C [8] was 96 % of control, the T/C [9] was 97 % of control and the T/C [10] was 96 % of control.
For Cc1c(C)c2ccc(OCCCN3CCN(Cc4ccc(Cl)cc4)CC3)cc2oc1=O, the T/C [13] was 88 % of control and the T/C [14] was 91 % of control.
For CN(C)C(=O)C(=O)C1C=Cc2ccccc21 (stereo not given), the T/C [4] was 100 % of control, the T/C [5] was 90 % of control and the T/C (dose: 400.0 mg/kg/injection, schedule: Q01DX009 (ip), vehicle: saline with Tween-80) was 95 % of control.

— PubChem BioAssay AID330 (DTP/NCI, 2004)
